# Test results from patent US20180214440A1, “ORAL COMPOSITION” (HELPERBY THERAPEUTICS LIMITED, priority 2015, published 2018).
# Test system: log phase S. aureus
# Experiment: Time-kill studies for 240 minutes, Example 3
# Type: cell-based
# Settings: alone at 0.01% w/v, FIG. 6
# Experimental: FIGS. 4, 5 and 6 contain the results of the time-kill studies then carried out against log phase S. aureus for 240 minutes (4 hours).
# These formulations included chlorhexidine digluconate at either 0.06% w/v, 0.04% w/v, 0.03% w/v or 0.015% w/v.
# Corsodyl® Daily Defence mouthwash 0.06% is a commercially available product manufactured by GlaxoSmithKline which contains 0.06% w/v chlorhexidine digluconate.
# The time to zero values for each of the FIGS. 4 to 6 are shown below in Table 4.
structure (smiles),measurement,value
"Cc1nc2ccc(Oc3ccccc3)cc2c2c1CCN2CCc1ccccc1 [HT61, 4-methyl-8-phenoxy-1-(2-phenylethyl)-2,3-dihydro-1H-pyrrolo[3,2-c]quinoline]",antimicrobial activity against log phase S. aureus,does not have significant antimicrobial activity
